US12552790B2, “Positive modulators of the muscarinic acetylcholine receptor M4” (Vanderbilt University, priority 2023, dated 2026)

Target: T1, Human M2 (Homo sapiens, UniProt P08172)
T1 construct: expressed in transfected cells; host or cells: CHO-K1
T1 sequence (P08172 1-466): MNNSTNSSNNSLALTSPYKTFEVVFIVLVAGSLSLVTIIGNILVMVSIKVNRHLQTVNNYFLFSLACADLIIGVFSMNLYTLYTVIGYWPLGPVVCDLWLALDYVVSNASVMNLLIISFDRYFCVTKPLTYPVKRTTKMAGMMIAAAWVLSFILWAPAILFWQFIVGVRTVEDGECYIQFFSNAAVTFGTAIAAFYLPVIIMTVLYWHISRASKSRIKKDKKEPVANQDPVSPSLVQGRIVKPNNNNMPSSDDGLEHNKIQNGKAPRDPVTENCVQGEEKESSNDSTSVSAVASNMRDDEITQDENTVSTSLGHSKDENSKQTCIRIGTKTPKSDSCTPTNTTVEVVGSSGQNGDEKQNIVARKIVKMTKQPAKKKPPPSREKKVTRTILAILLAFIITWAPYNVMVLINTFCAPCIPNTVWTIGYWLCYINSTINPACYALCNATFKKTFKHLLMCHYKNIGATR
Experiment: M2 cell-based functional assay, calcium mobilization (selectivity)
Settings: for Emax at 30 µM: % ACh maximum at 30 μM; for EC50: M2 cell-based functional assay, calcium flux
How it was run: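 CHO-K1 cells stably expressing receptor, Fluo-4-AM loaded (final 1.15 μM), compound added (140 s) then ACh at EC20 and EC80; Ca flux read at 480/530 nm. Normalized to max ACh response; agonist, PAM (EC20 increase) and antagonist (EC80 decrease) activity fitted by four-parameter logistic for EC50 and Emax.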

Row | Emax at 30 µM [%] | EC50 [nM] | SMILES
1 | 61 | 658 | [2H]C1([2H])Oc2ccc(OC3CCN(c4nc5c(cc4C)C(=O)NC5)CC3)cc2OC1([2H])[2H] [Compound 3, 2-(4-((2,3-dihydrobenzo[b][1,4]dioxin-6-yl-2,2,3,3-d4)oxy)piperidin-1-yl)-3-methyl-6,7-dihydro-5H-pyrrolo[3,4-b]pyridin-5-one]
2 | 68 | 499 | [2H]C1([2H])Oc2ccc(OC3CCN(c4nc5nn(C)c(=O)n5cc4C)CC3)cc2OC1([2H])[2H] [Compound A6, 7-(4-((2,3-dihydrobenzo[b][1,4]dioxin-6-yl-2,2,3,3-d4)oxy)piperidin-1-yl)-2,6-dimethyl-[1,2,4]triazolo[4,3-a]pyrimidin-3(2H)-one]
3 | 54 | 1520 | [2H]C1([2H])Oc2ccc(OC3CCN(c4nc5nn(C)c(=O)n5c(C)c4C)CC3)cc2OC1([2H])[2H] [Compound A10, 7-(4-((2,3-dihydrobenzo[b][1,4]dioxin-6-yl-2,2,3,3-d4)oxy)piperidin-1-yl)-2,5,6-trimethyl-[1,2,4]triazolo[4,3-a]pyrimidin-3(2H)-one]
